Like-named read-outs stand apart in the source and are kept apart here. Square brackets hold non-standard residues; d marks the D form. Peptide text beside a SMILES is read from it.
How the values were obtained:
[1] = system: sectioned sciatic nerve; common extensor muscle of the fingers; assay type: in vivo, rat; settings: for Muscle Tetnus: Fatigue / Muscle Tetnus: Muscle Strength / Muscle Tetnus: Muscle Strength Normalized to Muscle Weight / Muscle Tetnus: Speed of Contraction / Muscle Tetnus: Speed of Relaxation / Tetanic Strength/Single Pulse Strength: 35d. p.o.p.
[2] = system: sciatic nerve after transection and end-to-end suture; assay: Morphometry after section and suture of sciatic nerve; assay type: in vivo, rabbit
[3] = system: crushed sciatic nerve; assay: Sensorimotor function test (sciatic nerve regeneration assay, foot-flick response to thermal pain); assay type: in vivo, rat; settings: s.c. every 24 hr for approximately 20-25 days; head prints only 'μG/24 HRS'; vs 0.9% NaCl control
Description: Female, Sprague-Dawley rats (Charles River Breeding Labs) were used at an age of 7-8 weeks (120-140 g). Under ether anesthesia, the right sciatic nerve was carefully exposed and crushed with constant pressure, hemostatic forceps for 30 sec prior to closure and suturing of the incision. After surgery, the animals were randomly assigned to treatment groups of 10. The test peptides were administered s.c. in 0.9% NaCl in a vol of 0.1 ml. NaCl (0.9%) served as the control. Injections were started immediately after surgery and given every 24 hr thereafter for approximately 20-25 days. The criterion of sciatic nerve regeneration was based on the recovery of the foot-flick response to thermal pain. Beginning 48 hr after surgery, the rats were tested five days a week for the ability to withdraw, from a heat source, the paw innervated by the crushed nerve. All sensorimotor testing was performed between 1:00 and 3:00 p.m. Specifically, the rat was immobilized by wrapping in a towel, and the sole of the lesioned limb was placed over the aperture of a modified d'Amour apparatus. The time required to withdraw the foot was recorded to the nearest 0.1 of sec using a digital stopwatch. If no response occurred by 5 sec, the test was terminated to avoid tissue damage. The observe measuring the foot-flick response was blind to the treatment group being tested. All animals were acclimatized to the testing procedure prior to surgery. Baseline values were obtained by determining the response time for the unlesioned limb.

[4] = Group 3 (topical in tissucol, lower dose)
[5] = Group 4 (s.c. 5ug.kg.day for 18 days)
[6] = 1 cm distal to the transection, 32 days p.op., 1 μg/kg per day s.c.
[7] = Region of the Transection, 32 days p.op., 1 μg/kg per day s.c.
[8] = Region of the Transection, 96 days p.op., 1 μg/kg per day s.c.

In the case of `C[C@@H](N)C(=O)N[C@@H](CCC(N)=O)C(=O)N[C@@H](Cc1ccc(O)cc1)C(=O)N[C@@H](Cc1ccccc1)C(=O)N[C@@H](CCCNC(=N)N)C(=O)N[C@@H](Cc1c[nH]c2ccccc12)C(=O)NCC(N)=O` [BIM-22015, D--Ala--Gln--Tyr--Phe--Arg--Trp--Gly--NH2] (H-[dA]QYFRWG-NH2), the “Muscle Tetnus: Fatigue” value ([1]; Group 2 (topical in tissucol)) is reported as 73,80%, the “Muscle Tetnus: Muscle Strength” value ([1]; Group 2 (topical in tissucol)) is reported as 61,83 g and the “Muscle Tetnus: Muscle Strength Normalized to Muscle Weight” value ([1]; Group 2 (topical in tissucol)) is reported as 0,91 g/ug. The “Muscle Tetnus: Speed of Contraction” value ([1]; Group 2 (topical in tissucol)) was 2409 g/ms, the “Muscle Tetnus: Speed of Relaxation” value ([1]; Group 2 (topical in tissucol)) was 2034 g/ms and the “Tetanic Strength/Single Pulse Strength” value ([1]; Group 2 (topical in tissucol)) was 307,50%. For the same compound, the “Muscle Tetnus: Fatigue” value [1, 4] was 75,55%, the “Muscle Tetnus: Muscle Strength” value [1, 4] was 51,55 g and the “Muscle Tetnus: Muscle Strength Normalized to Muscle Weight” value [1, 4] was 0,84 g/ug. The “Muscle Tetnus: Speed of Contraction” value [1, 4] was 1737 g/ms, the “Muscle Tetnus: Speed of Relaxation” value [1, 4] was 884 g/ms and the “Tetanic Strength/Single Pulse Strength” value [1, 4] was 343,00%. For the same compound, the “Muscle Tetnus: Fatigue” value [1, 5] was 72,12%, the “Muscle Tetnus: Speed of Contraction” value [1, 5] was 5507 g/ms and the “Muscle Tetnus: Speed of Relaxation” value [1, 5] was 4226 g/ms. For the same compound, the “Tetanic Strength/Single Pulse Strength” value [1, 5] was 347,12%, the “fatigability of the muscle” value ([1]; rat, in vivo) was “no effect” and the “improvement of muscle strength over control group 1 (column 2, Table 3)” value ([1]; rat, in vivo, sc) was 30%. For the same compound, the “light microscopic evaluation of semi-thin sections, control vs experimental groups” value ([2]; 0.5 μm sections after severance and end-to-end suture) was “did not disclose definite differences”, the “growth of the myelin sheath in treated animals vs controls” value ([2]; 1 cm distal of the transection, period from the 32nd to the 96th day) was “almost twice as fast” and the “Mean values of axon diameter” value [2, 6] was 1.545 μm. The “Mean values of myelin sheath thickness” value [2, 6] was 0.310 μm, the “Mean values of axon diameter” value ([2]; 1 cm distal to the transection, 96 days p.op., 1 μg/kg per day s.c.) was 2.078 μm and the “Mean values of axon diameter” value [2, 7] was 1.888 μm. For the same compound, the “Mean values of myelin sheath thickness” value [2, 7] was 0.398 μm, the “Mean values of axon diameter” value [2, 8] was 2.335 μm and the “Mean values of myelin sheath thickness” value [2, 8] was 0.551 μm. The “Number of myelinated axons/0.004 sq. mm” value [2, 8] was 62 /0.004 sq. mm, the “statistically significant effect on the axon diameter” value ([2]; on the 32nd or on the 96th day p.op.) was “could not be demonstrated” and the “% Reduction of Recovery Time” value [3] was 28%.

— US5462927A, “Peptides aiding nerve regeneration” (The Administrators of the Tulane Educational Fund, priority 1992, dated 1995)
